Experimental data published in ChEMBL document CHEMBL1201862, “PubChem BioAssay data set” (2004).
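Method: 48-hour compound exposure of cells in 96-well plates, five concentrations, linear interpolation of endpoints. GI50 = concentration required for 50% inhibition of growth.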 The source made the active and inactive calls. No stated cut-off is given here; in the data, active = GI50 up to about 1.1 µM and inactive = higher.

Key:
Assay in all cases: NCI anticancer screen, dose series, 48 h
786-0 = tested on: 786-0
A498 = tested on: A498
A549 = tested on: A549
ACHN = tested on: ACHN
CAKI-1 = tested on: CAKI-1
CCRF-CEM = tested on: CCRF-CEM
COLO 205 = tested on: COLO 205
DLD-1 = tested on: DLD-1
DMS-114 = tested on: DMS-114
DMS-273 = tested on: DMS-273
EKVX = tested on: EKVX
HCC 2998 = tested on: HCC 2998
HCT-116 = tested on: HCT-116
HCT-15 = tested on: HCT-15
HL-60 = tested on: HL-60
HOP-18 = tested on: HOP-18
HOP-62 = tested on: HOP-62
HOP-92 = tested on: HOP-92
HT-29 = tested on: HT-29
IGROV-1 = tested on: IGROV-1
K562 = tested on: K562
KM-20L2 = tested on: KM-20L2
KM12 = tested on: KM12
LOX IMVI = tested on: LOX IMVI
LXFL 529 = tested on: LXFL 529
M14 = tested on: M14
M19-MEL = tested on: M19-MEL
MOLT-4 = tested on: MOLT-4
Malme-3M = tested on: Malme-3M
NCI-H226 = tested on: NCI-H226
NCI-H23 = tested on: NCI-H23
NCI-H460 = tested on: NCI-H460
NCI-H522 = tested on: NCI-H522
OVCAR-3 = tested on: OVCAR-3
OVCAR-4 = tested on: OVCAR-4
OVCAR-5 = tested on: OVCAR-5
OVCAR-8 = tested on: OVCAR-8
RPMI-8226 = tested on: RPMI-8226
RXF 393 = tested on: RXF 393
SF-268 = tested on: SF-268
SF-295 = tested on: SF-295
SF-539 = tested on: SF-539
SK-MEL-28 = tested on: SK-MEL-28
SK-MEL-2 = tested on: SK-MEL-2
SK-MEL-5 = tested on: SK-MEL-5
SK-OV-3 = tested on: SK-OV-3
SN12C = tested on: SN12C
SNB-19 = tested on: SNB-19
SNB-75 = tested on: SNB-75
SNB-78 = tested on: SNB-78
SR = tested on: SR
SW-620 = tested on: SW-620
TK-10 = tested on: TK-10
U-251 = tested on: U-251
UACC-257 = tested on: UACC-257
UACC-62 = tested on: UACC-62
UO-31 = tested on: UO-31
XF498 = tested on: XF498
RXF 631 = tested on: RXF 631

CCCCCCCCC[C@@H]1CC(=O)OCC2OC(O[C@H](CCCCCCCCC)CC(=O)OCC3OC(O[C@H](CCCCCCCCC)CC(=O)OCC4OC(O1)C(O)C(O)C4O)C(O)C(O)C3O)C(O)C(O)C2O (stereo partly drawn)
GI50 (786-0): 0.957 µM (active)
GI50 (A498): 14.5 µM (inactive)
GI50 (A549): 14.7 µM (inactive)
GI50 (ACHN): 13.2 µM (inactive)
GI50 (CAKI-1): 3.21 µM (inactive)
GI50 (CCRF-CEM): 5.79 µM (inactive)
GI50 (COLO 205): 2.52 µM (inactive)
GI50 (DLD-1): 14 µM (inactive)
GI50 (DMS-114): 8.89 µM (inactive)
GI50 (DMS-273): 8.65 µM (inactive)
GI50 (EKVX): 12 µM (inactive)
GI50 (HCC 2998): 12 µM (inactive)
GI50 (HCT-116): 8.18 µM (inactive)
GI50 (HCT-15): 5.43 µM
GI50 (HL-60): 14.3 µM (inactive)
GI50 (HOP-18): < 0.01 µM (active)
GI50 (HOP-62): 12.3 µM (inactive)
GI50 (HOP-92): 7.05 µM (inactive)
GI50 (HT-29): 11.9 µM (inactive)
GI50 (IGROV-1): 14.5 µM (inactive)
GI50 (K562): 3.47 µM (inactive)
GI50 (KM-20L2): 6.46 µM (inactive)
GI50 (KM12): 6.5 µM (inactive)
GI50 (LOX IMVI): 3.52 µM (inactive)
GI50 (LXFL 529): 6.53 µM (inactive)
GI50 (M14): 4.97 µM (inactive)
GI50 (M19-MEL): 4.42 µM (inactive)
GI50 (MOLT-4): 6.22 µM (inactive)
GI50 (Malme-3M): 8.83 µM (inactive)
GI50 (NCI-H226): 3.9 µM (inactive)
GI50 (NCI-H23): 16 µM (inactive)
GI50 (NCI-H460): 5.13 µM (inactive)
GI50 (NCI-H522): 8.73 µM (inactive)
GI50 (OVCAR-3): 18 µM (inactive)
GI50 (OVCAR-4): 18.2 µM (inactive)
GI50 (OVCAR-5): 10.7 µM (inactive)
GI50 (OVCAR-8): 14.3 µM (inactive)
GI50 (RPMI-8226): 14.5 µM (inactive)
GI50 (RXF 393): 17 µM (inactive)
GI50 (SF-268): 2.94 µM (inactive)
GI50 (SF-295): 14.1 µM (inactive)
GI50 (SF-539): 10.3 µM (inactive)
GI50 (SK-MEL-28): 6.62 µM (inactive)
GI50 (SK-MEL-2): 8.67 µM (inactive)
GI50 (SK-MEL-5): 12.5 µM (inactive)
GI50 (SK-OV-3): 13.4 µM (inactive)
GI50 (SN12C): 13.7 µM (inactive)
GI50 (SNB-19): 8.89 µM (inactive)
GI50 (SNB-75): 9.27 µM (inactive)
GI50 (SNB-78): 17.3 µM (inactive)
GI50 (SR): 6.7 µM (inactive)
GI50 (SW-620): 5.83 µM (inactive)
GI50 (TK-10): 8.15 µM (inactive)
GI50 (U-251): 8.28 µM (inactive)
GI50 (UACC-257): 10.8 µM (inactive)
GI50 (UACC-62): 14.9 µM (inactive)
GI50 (UO-31): 9.4 µM (inactive)
GI50 (XF498): 7.74 µM (inactive)

CCOC(=O)C1CC(=O)C=C2CCCCC21 (stereo not drawn)
GI50 (786-0): > 100 µM (inactive)
GI50 (A498): > 100 µM (inactive)
GI50 (A549): > 100 µM (inactive)
GI50 (ACHN): > 100 µM (inactive)
GI50 (CAKI-1): > 100 µM (inactive)
GI50 (CCRF-CEM): > 100 µM (inactive)
GI50 (COLO 205): > 100 µM (inactive)
GI50 (DLD-1): > 100 µM (inactive)
GI50 (DMS-114): > 100 µM (inactive)
GI50 (DMS-273): > 100 µM (inactive)
GI50 (EKVX): > 100 µM (inactive)
GI50 (HCC 2998): > 100 µM (inactive)
GI50 (HCT-116): > 100 µM (inactive)
GI50 (HCT-15): > 100 µM
GI50 (HL-60): > 100 µM (inactive)
GI50 (HOP-62): > 100 µM (inactive)
GI50 (HOP-92): > 100 µM (inactive)
GI50 (HT-29): > 100 µM (inactive)
GI50 (IGROV-1): > 100 µM (inactive)
GI50 (K562): > 100 µM (inactive)
GI50 (KM12): > 100 µM (inactive)
GI50 (LOX IMVI): > 100 µM (inactive)
GI50 (LXFL 529): > 100 µM (inactive)
GI50 (M14): > 100 µM (inactive)
GI50 (M19-MEL): > 100 µM (inactive)
GI50 (MOLT-4): > 100 µM (inactive)
GI50 (Malme-3M): > 100 µM (inactive)
GI50 (NCI-H23): > 100 µM (inactive)
GI50 (NCI-H460): > 100 µM (inactive)
GI50 (NCI-H522): > 100 µM (inactive)
GI50 (OVCAR-3): > 100 µM (inactive)
GI50 (OVCAR-4): > 100 µM (inactive)
GI50 (OVCAR-5): > 100 µM (inactive)
GI50 (OVCAR-8): > 100 µM (inactive)
GI50 (RPMI-8226): > 100 µM (inactive)
GI50 (RXF 393): > 100 µM (inactive)
GI50 (RXF 631): > 100 µM (inactive)
GI50 (SF-268): > 100 µM (inactive)
GI50 (SF-295): > 100 µM (inactive)
GI50 (SF-539): > 100 µM (inactive)
GI50 (SK-MEL-28): > 100 µM (inactive)
GI50 (SK-MEL-2): > 100 µM (inactive)
GI50 (SK-MEL-5): > 100 µM (inactive)
GI50 (SK-OV-3): > 100 µM (inactive)
GI50 (SN12C): > 100 µM (inactive)
GI50 (SNB-19): > 100 µM (inactive)
GI50 (SNB-75): 99.3 µM (inactive)
GI50 (SNB-78): > 100 µM (inactive)
GI50 (SW-620): > 100 µM (inactive)
GI50 (TK-10): > 100 µM (inactive)
GI50 (U-251): > 100 µM (inactive)
GI50 (UACC-257): > 100 µM (inactive)
GI50 (UACC-62): > 100 µM (inactive)
GI50 (UO-31): > 100 µM (inactive)
GI50 (XF498): > 100 µM (inactive)
